This test addresses Mu-type opioid receptor (Homo sapiens, UniProt P35372). Put plainly: Inhibition of [3H]- diprenorphine binding on Opioid receptor mu 1 expressed in human embryonic kidney (HEK) cells. Format: cell-based.

The source of these data is ChEMBL document CHEMBL1135490, “Naphthalene dicarboxaldehyde as an electrophilic fluorogenic moiety for affinity labeling: application to opioid receptor affinity labels with greatly improved fluorogenic properties” (J Med Chem, 2002).

In general, pKi refers to the negative decadic logarithm of the Ki, by convention in mol/L. Low values mean a large Ki, high ones a small Ki.

pKi: −log10 of the molar value.

Mu-type opioid receptor, sequence (P35372 whole entry): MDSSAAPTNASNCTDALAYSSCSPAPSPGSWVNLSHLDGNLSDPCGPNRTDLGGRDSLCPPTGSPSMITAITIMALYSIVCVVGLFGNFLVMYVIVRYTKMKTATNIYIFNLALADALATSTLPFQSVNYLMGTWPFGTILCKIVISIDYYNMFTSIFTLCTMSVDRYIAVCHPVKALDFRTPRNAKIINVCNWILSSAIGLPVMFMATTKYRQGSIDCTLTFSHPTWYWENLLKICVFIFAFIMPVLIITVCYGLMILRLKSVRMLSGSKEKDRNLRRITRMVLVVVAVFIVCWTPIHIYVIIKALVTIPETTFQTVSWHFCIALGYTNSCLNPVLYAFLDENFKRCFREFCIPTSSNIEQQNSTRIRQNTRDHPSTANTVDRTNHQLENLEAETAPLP

Consider `O=Cc1cc2ccc(C(=O)N[C@@H]3CC[C@@]4(O)C5Cc6ccc(O)c7c6[C@@]4(CCN5CC4CC4)[C@H]3O7)cc2cc1C=O`, for which the pKi is 9.13.
